Data as given in US10501454B2, “Monocyclic β-lactam-siderophore conjugate, and preparation method and use thereof” (Shanghai Institute of Materia Medica, Chinese Academy of …, priority 2016, dated 2019).
≈ marks a conversion by molar mass, not a printed value. Counter-ions that a name gives are not always drawn.

Columns and labels:
[1] = system: Escherichia coli ATCC 35218; assay: MIC, broth microdilution, iron-deficient MH medium; format: cell-based; details: Escherichia coli, ATCC35218; iron-deficient MH medium (16 mg/L 2,2'-bipyridine); quality control strain; read-out: Antibacterial activity MIC, Escherichia coli ATCC 35218
Experimental: (§1) Strain for quality control: Escherichia coli ATCC35218, purchased from National Center of Clinical Laboratory.
(§2) Medium: MH liquid medium (OXOID).
(§3) Culture condition: cells were incubated at 35-37° C. for 16-18 h.
(§4) The broth microdilution method recommended by Clinical and Laboratory Standards Institute (CLSI), Performance Standards for Antimicrobial Susceptibility Testing; Twenty-Third Informational Supplement, M02-All, M07-A9 and M11-A8, 2013 was used to determine the MIC value of each test sample against each test strain in the normal MH medium and iron-deficient MH medium.
(§5) BPL was added to the normal MH medium to obtain a final concentration of 16 mg/L; According to the method in Section 1.2.1, 100 μl of each test sample solution at different concentrations was aspirated to the 1st to 10th well in a 96-well sterile polystyrene plate to obtain the final drug concentrations of 16, 8, 4, 2, 1, 0.5, 0.25, 0.125, 0.06, and 0.03 mg/L, respectively. Then, 100 μl of the test bacterial liquid was added to each well (200 μl per well), and the final concentration of the bacterial liquid was approximately 10^4 CFU/ml. After sealing, it was placed in a 35-37° C. incubator for 18-20 hours for testing the result. The OD600 value was measured by a microplate reader, Minimal Inhibitory Concentration (MIC) of a drug is the lowest concentration of the drug which prevents growth of bacteria in the wells.

[2] = system: Acinetobacter baumannii (4 strains); assay: MIC, broth microdilution, iron-deficient MH medium; format: cell-based; details: Acinetobacter baumannii; iron-deficient MH medium (16 mg/L 2,2'-bipyridine); multidrug-resistant clinical isolates (integron I, OXA23); read-out: Antibacterial activity MIC, Acinetobacter baumannii (4 strains)
Experimental: (§6) Supplier of the strains: all of the above strains were provided by Sichuan Primed Shines Bio-tech Co., Ltd. A single colony was isolated by streaking on agar plates for each strain prior to the experiment, and the cells freshly cultured at 37° C. overnight were appropriately diluted for the experiment.
as §2, §3, §4, §5

[3] = system: Escherichia coli (4 strains); assay: MIC, broth microdilution, iron-deficient MH medium; format: cell-based; details: Escherichia coli; iron-deficient MH medium (16 mg/L 2,2'-bipyridine); clinical isolates (ESBLs); read-out: Antibacterial activity MIC, Escherichia coli (4 strains)
Experimental: as §6, §2, §3, §4, §5

[4] = system: Klebsiella pneumoniae (4 strains); assay: MIC, broth microdilution, iron-deficient MH medium; format: cell-based; details: for MIC: Klebsiella pneumoniae, iron-deficient MH medium (16 mg/L 2,2'-bipyridine), multi-drug resistant clinical isolates (KPC2), read-out: Antibacterial activity MIC, Klebsiella pneumoniae (4 strains); for times more effective than BAL30072 in inhibitory activity against Klebsiella pneumonia: iron-deficient MH medium, from MIC of Table 3
Experimental: as §6, §2, §3, §4, §5

[5] = system: Pseudomonas aeruginosa (4 strains); assay: MIC, broth microdilution, iron-deficient MH medium; format: cell-based; details: Pseudomonas aeruginosa; iron-deficient MH medium (16 mg/L 2,2'-bipyridine); multidrug-resistant clinical isolates (integrator I, IMP4); read-out: Antibacterial activity MIC, Pseudomonas aeruginosa (4 strains)
Experimental: as §6, §2, §3, §4, §5

[6] = system: Escherichia coli ATCC 35218; assay: MIC, broth microdilution, normal MH medium; format: cell-based; details: Escherichia coli, ATCC35218, quality control strain, read-out: Antibacterial activity MIC, Escherichia coli ATCC 35218
Experimental: as §1, §2, §3, §4
(§7) After diluting each sample to different concentrations with normal MH medium, 100 μl of each test sample solution at different concentrations was separately aspirated onto a 96-well sterile polystyrene plate. Drug solutions were added to the 1st to 10th well with the final concentrations of 16, 8, 4, 2, 1, 0.5, 0.25, 0.125, 0.06, and 0.03 mg/L in each well, respectively. The 11th well, as a blank control, was not added with drugs and bacteria. The 12th well, as a bacterial growth control, was added with bacteria but no drug.
(§8) The test bacterial liquid was adjusted to a bacterial suspension of 0.5 Mcfarland standard with physiological saline, and diluted with MH broth at 1:100, and then added to the drug solution so that a final concentration of the bacterial liquid was approximately 10^4 CFU/ml; 100 μl of the bacterial liquid was further added to each of the above wells (the total volume in each well is 200 μl), which was sealed and placed in a 35-37° C. incubator for 18-20 h for testing the result. The OD600 value was measured by a microplate reader, Minimal Inhibitory Concentration (MIC) of a drug is the lowest concentration of the drug which prevents growth of bacteria in the wells. 1.2.2 MIC in iron-deficient MH medium

[7] = system: Acinetobacter baumannii (4 strains); assay: MIC, broth microdilution, normal MH medium; format: cell-based; details: Acinetobacter baumannii, read-out: Antibacterial activity MIC, Acinetobacter baumarmii (4 strains)
Experimental: as §6, §2, §3, §4, §7, §8

[8] = system: Escherichia coli (4 strains); assay: MIC, broth microdilution, normal MH medium; format: cell-based; details: for MIC: Escherichia coli, clinical isolates (ESBLs), read-out: Antibacterial activity MIC, Escherichia coli (4 strains); for times more effective than BAL30072 in inhibitory activity against Escherichia coli: from MIC of Table 2
Experimental: as §6, §2, §3, §4, §7, §8

[9] = system: Pseudomonas aeruginosa (4 strains); assay: MIC, broth microdilution, normal MH medium; format: cell-based; details: Pseudomonas aeruginosa, multidrug-resistant clinical isolates (integrator I, IMP4), read-out: Antibacterial activity MIC, Pseudomonas aeruginosa (4 strains)
Experimental: as §6, §2, §3, §4, §7, §8

[10] = system: Klebsiella pneumoniae (4 strains); assay: MIC, broth microdilution, normal MH medium; format: cell-based; details: for MIC: Klebsiella pneumoniae, multi-drug resistant clinical isolates (KPC2), read-out: Antibacterial activity MIC, Klebsiella pneumoniae (4 strains); for times more effective than BAL30072 in inhibitory activity against Klebsiella pneumoniae: from MIC of Table 2
Experimental: as §6, §2, §3, §4, §7
The OD600 value was measured by a microplate reader, Minimal Inhibitory Concentration (MIC) of a drug is the lowest concentration of the drug which prevents growth of bacteria in the wells. 1.2.2 MIC in iron-deficient MH medium

[11] = system: multidrug-resistant Klebsiella pneumoniae KR15-4 (KPC2); assay: In vivo efficacy in mice systemically infected with multidrug-resistant Klebsiella pneumoniae KR15-4 (KPC2); details: Kunming mice, intraperitoneal infection, drug s.c. 0.5 h and 4 h after infection, deaths over 7 days, Bliss method; for ED50: Klebsiella pneumoniae, read-out: ED50 Subcutaneous injection
Experimental: 4.1 Test strains: clinically isolated pathogenic multidrug-resistant Klebsiella pneumoniae KR15-4 (KPC2), provided by Sichuan Primed Shines Bio-tech Co., Ltd.
4.2 Test animals: Kunming mice, age: 4 to 5 weeks, weight: 18 to 22 g, half male, half female, SPF grade.
4.3 Test methods: Mice were randomly divided into several groups, 5 mice for each group, half male and half female, and 4 doses for each test drug: 12.5, 25, 50 and 100 mg/kg. The mice were intraperitoneally injected with 0.5 mL of 3.0×10^6 CFU/mL bacterial suspension for each mouse, and subcutaneously injected with the drug at the designed dose 0.5 h and 4 h after infection. The subcutaneous injection volume was 0.2 ml/20 g mouse weight; the number of deaths in mice was observed and recorded for 7 consecutive days. According to the number of deaths in mice, the half effective dose ED50 was calculated according to the Bliss method using the DAS 1.0 software, edited by Sun Ruiyuan et al.

Compound | MIC [1] | MIC [2] | MIC [3] | MIC [4] | times more effective than BAL30072 in inhibitory activity against Klebsiella pneumonia [4] | MIC [5] | MIC [6] | MIC [7] | MIC [8] | times more effective than BAL30072 in inhibitory activity against Escherichia coli [8] | MIC [9] | MIC [10] | times more effective than BAL30072 in inhibitory activity against Klebsiella pneumoniae [10] | ED50 [11] | ED50 Subcutaneous injection [11]
CC(C)[C@H](O/N=C(\C(=O)N[C@@H]1C(=O)N(OS(=O)(=O)O)C1(C)C)c1csc(N)n1)c1cc(=O)c(O)cn1O [Compound 28, (3S)-3-((Z)-2-(2-aminothiazol-4-yl)-2-(((S)-1-(1,5-dihydroxy-4-oxo-1,4-Dihydropyridin-2-yl)-2-methylisopropyloxy)imine)acetamido)-2,2-dimethyl-4-oxoazetidine-1-hydrogen sulfate] | < 0.03 µg/mL | 1 to 2 µg/mL | 0.125 to 0.25 µg/mL | 1 µg/mL | 64 times | 0.125 to 1 µg/mL |  |  |  |  |  |  |  |  | 
CSCC(O/N=C(\C(=O)N[C@@H]1C(=O)N(OS(=O)(=O)O)C1(C)C)c1csc(N)n1)c1cc(=O)c(O)cn1O (stereo partly drawn) [Compound 16, (3S)-3-((Z)-2-(2-aminothiazol-4-yl)-2-((1-(1,5-dihydroxy-4-oxo-1,4-dihydropyridin-2-yl)-2-(methylthio)ethoxy)imine)acetamido)-2,2-dimethyl-4-oxoazetidine-1-hydrogen sulfate] | < 0.03 µg/mL | 0.5 to 1 µg/mL | 0.06 to 0.25 µg/mL | 0.5 to 1 µg/mL | 64-128 times | 0.125 to 1 µg/mL | < 0.03 µg/mL | 1 to 2 µg/mL | 0.125 to 0.5 µg/mL | 2-8 times | 0.25 to 2 µg/mL | 0.5 to 1 µg/mL | 64-128 times |  | 
C[C@@H](O)[C@H]1C(=O)N2C(C(=O)O)=C(S[C@@H]3CN[C@H](C(=O)N(C)C)C3)[C@H](C)[C@H]12 [meropenem, reference compound] |  |  |  |  |  |  | 0.125 µg/mL (≈ 0.326 µM) | 64 µg/mL (≈ 167 µM) | 0.25 to 32 µg/mL (≈ 0.652 to 83.4 µM) |  | 32 to 64 µg/mL (≈ 83.4 to 167 µM) | 32 to 64 µg/mL (≈ 83.4 to 167 µM) |  | > 100 mg/kg | >100 mg/kg
C[C@H](O/N=C(\C(=O)N[C@@H]1C(=O)N(OS(=O)(=O)O)C1(C)C)c1nc(N)sc1Cl)c1cc(=O)c(O)cn1O [Compound 26, (S)-3-((Z)-2-(2-amino-5-chlorothiazol-4-yl)-2-(((S)-1-(1,5-dihydroxy-4-oxo-1,4-dihydropyridin-2-yl)ethoxy)imine)acetamido)-2,2-dimethyl-4-oxoazetidine-1-hydrogen sulfate] | < 0.03 µg/mL | 0.5 to 1 µg/mL | 0.03 to 0.25 µg/mL | 0.5 to 4 µg/mL | 16-128 times | 0.25 to 1 µg/mL | < 0.03 µg/mL | 1 µg/mL | 0.25 to 1 µg/mL |  | 0.5 to 1 µg/mL | 1 to 4 µg/mL |  |  | 
CC(O/N=C(\C(=O)N[C@@H]1C(=O)N(OS(=O)(=O)O)C1(C)C)c1nc(N)sc1Cl)c1cc(=O)c(O)cn1O (stereo partly drawn) [Compound 22, (3S)-3-((Z)-2-(2-amino-5-chlorothiazol-4-yl)-2-((1-(1,5-dihydroxy-4-oxo-1,4-dihydropyridin-2-yl)ethoxyl)imine)acetamido)-2,2-dimethyl-4-oxoazetidine-1-hydrogen sulfate] | < 0.03 µg/mL | 1 µg/mL | 0.06 to 0.25 µg/mL | 1 µg/mL | 64 times | 0.5 to 1 µg/mL | < 0.03 µg/mL | 2 µg/mL | 0.06 to 0.5 µg/mL | 4-16 times | 0.5 to 2 µg/mL | 1 µg/mL | 64 times |  | 
CC(C)C(O/N=C(\C(=O)N[C@@H]1C(=O)N(OS(=O)(=O)O)C1(C)C)c1nc(N)sc1Cl)c1cc(=O)c(O)cn1O (stereo partly drawn) [Compound 24, (3S)-3-((Z)-2-(2-amino-5-chlorothiazol-4-yl)-2-((1-(1,5-dihydroxy-4-oxo-1,4-dihydropyridin-2-yl)-2-methylpropoxy)imine)acetamido)-2,2-dimethyl-4-oxoazetidine-1-hydrogen sulfate] | < 0.03 µg/mL | 1 to 2 µg/mL | 0.06 to 0.25 µg/mL | 0.125 to 0.5 µg/mL | 128-512 times | 0.25 to 2 µg/mL |  |  |  |  |  |  |  |  | 
C[C@H]1[C@H](NC(=O)/C(=N\OC(C)(C)C(=O)O)c2csc(N)n2)C(=O)N1S(=O)(=O)O [aztreonam, reference compound] |  |  |  |  |  |  | 0.5 µg/mL (≈ 1.15 µM) |  |  |  |  |  |  | > 100 mg/kg | >100 mg/kg
CO/N=C(\C(=O)N[C@@H]1C(=O)N2C(C(=O)O)=CCS[C@H]12)c1csc(N)n1 [ceftizoxime sodium, reference compound] |  |  |  |  |  |  | 0.25 µg/mL | 32 to 64 µg/mL | 0.5 to 2 µg/mL |  | > 64 µg/mL | 32 to 64 µg/mL |  |  | 
CC(C)[C@H](O/N=C(\C(=O)N[C@@H]1C(=O)N(OS(=O)(=O)O)C1(C)C)c1nc(N)sc1Cl)c1cc(=O)c(O)cn1O [Compound 29, (3S)-3-((Z)-2-(2-amino-5-chlorothiazol-4-yl)-2-(((S)-1-(1,5-dihydroxy-4-oxo-1,4-dihydropyridin-2-yl)-2-methylpropoxy)imine)acetamido)-2,2-dimethyl-4-oxoazetidine-1-hydrogen sulfate] | < 0.03 µg/mL | 0.5 to 1 µg/mL | 0.125 to 1 µg/mL | 0.25 to 0.5 µg/mL | 128-256 times | 0.06 to 1 µg/mL | < 0.03 µg/mL | 1 to 2 µg/mL | 1 to 2 µg/mL |  | 0.25 to 2 µg/mL | 1 to 4 µg/mL |  |  | 
